Laboratory results as given in PubChem BioAssay AID248 (DTP/NCI, 2004).
Where “and” joins values, the source holds several entries; their conditions need not be identical. Equal values may be shown once. Inconclusive results and toxic doses are left out. Cut-off read from the data, not from the text of the source: active = T/C of 150% or more; inactive = T/C below 125%.

Tested on: L1210 leukemia ip in BDF1 mice, survival T/C
Assay: NCI In Vivo Anticancer Drug Screen. Data for tumor model L1210 Leukemia (intraperitoneal) in B6D2F1 (BDF1) mice
Conditions: endpoint: mean survival time, higher = longer survival
In short: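 Value reflects the ratio of survival in compound-treated mice to survival in vehicle-treated controls, with both groups carrying the same transplanted tumor.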

[1] = dose: 100.0 mg/kg/injection, schedule: Q01DX009 (ip), vehicle: Klucel (hydroxypropylcellulose) (HPC)
[2] = dose: 200.0 mg/kg/injection, schedule: Q01DX009 (ip), vehicle: Klucel (hydroxypropylcellulose) (HPC)
[3] = dose: 400.0 mg/kg/injection, schedule: Q01DX009 (ip), vehicle: Klucel (hydroxypropylcellulose) (HPC)
[4] = dose: 50.0 mg/kg/injection, schedule: Q01DX009 (ip), vehicle: saline
[5] = dose: 100.0 mg/kg/injection, schedule: Q01DX009 (ip), vehicle: saline
[6] = dose: 100.0 mg/kg/injection, schedule: Q01DX001 (ip), vehicle: saline
[7] = dose: 200.0 mg/kg/injection, schedule: Q01DX001 (ip), vehicle: saline
[8] = dose: 400.0 mg/kg/injection, schedule: Q01DX001 (ip), vehicle: saline
[9] = dose: 200.0 mg/kg/injection, schedule: Q01DX009 (ip), vehicle: saline
[10] = dose: 200.0 mg/kg/injection, schedule: Q01DX001 (ip), vehicle: carboxymethylcellulose (CMC)
[11] = dose: 50.0 mg/kg/injection, schedule: Q01DX009 (ip), vehicle: saline with Tween-80
[12] = dose: 100.0 mg/kg/injection, schedule: Q04DX003 (ip), vehicle: saline
[13] = dose: 200.0 mg/kg/injection, schedule: Q04DX003 (ip), vehicle: saline
[14] = dose: 100.0 mg/kg/injection, schedule: Q04DX002 (ip), vehicle: Klucel (hydroxypropylcellulose) (HPC)
[15] = dose: 200.0 mg/kg/injection, schedule: Q04DX002 (ip), vehicle: Klucel (hydroxypropylcellulose) (HPC)
[16] = dose: 400.0 mg/kg/injection, schedule: Q04DX002 (ip), vehicle: Klucel (hydroxypropylcellulose) (HPC)
[17] = dose: 100.0 mg/kg/injection, schedule: Q04DX003 (ip), vehicle: Klucel (hydroxypropylcellulose) (HPC)
[18] = dose: 200.0 mg/kg/injection, schedule: Q04DX003 (ip), vehicle: Klucel (hydroxypropylcellulose) (HPC)
[19] = dose: 400.0 mg/kg/injection, schedule: Q04DX003 (ip), vehicle: Klucel (hydroxypropylcellulose) (HPC)

Measured: T/C

O=S(=O)(c1ccc(Nc2nc(Cl)nc(Cl)n2)cc1)N(CCCl)CCCl
inactive: [1] 103 % of control | [2] 104 % of control | [3] 107 % of control

ClC/C=[CH]/[Sn]([c]1ccccc1)([c]1ccccc1)[c]1ccccc1
inactive: [4] 112 % of control | [5] 116 % of control

O=S(=O)(/C=C(/Br)c1ccccc1)c1ccccc1
inactive: [6] 92 % of control | [7] 97 % of control | [8] 95 % of control

CC(=O)OCC1CCCN1C(C)=O (centres undefined)
inactive: [4] 101 % of control | [5] 101 % of control | [9] 101 % of control

COc1cc(C)cc(C(=O)O)c1O
inactive: [10] 90 % of control

CCOC(=O)/C=C/c1ccco1
inactive: [11] 93 % of control | dose: 100.0 mg/kg/injection, schedule: Q01DX009 (ip), vehicle: saline with Tween-80 96 % of control | dose: 100.0 mg/kg/injection, schedule: Q04DX003 (ip), vehicle: saline with Tween-80 103 % of control | dose: 200.0 mg/kg/injection, schedule: Q01DX009 (ip), vehicle: saline with Tween-80 93 % of control | dose: 200.0 mg/kg/injection, schedule: Q04DX003 (ip), vehicle: saline with Tween-80 95 % of control

Cc1csc[n+]1C1CCCCC1
inactive: dose: 75.0 mg/kg/injection, schedule: Q01DX001 (ip), vehicle: saline 100 % of control

COc1cc([N+](=O)[O-])c(N)c([N+](=O)[O-])c1
inactive: dose: 50.0 mg/kg/injection, schedule: Q01DX001 (ip), vehicle: saline 96 % of control | [6] 108 % of control | [7] 96 % of control | [8] 93 % of control

CCN(CC)CCC(O)c1cc(-c2ccc(Cl)cc2)nc2ccc(OC)cc12 (centres undefined)
inactive: dose: 100.0 mg/kg/injection, schedule: Q01DX001 (ip), vehicle: carboxymethylcellulose (CMC) 94 % of control | dose: 100.0 mg/kg/injection, schedule: Q04DX003 (ip), vehicle: carboxymethylcellulose (CMC) 104 % of control | [10] 92 % of control | dose: 200.0 mg/kg/injection, schedule: Q04DX003 (ip), vehicle: carboxymethylcellulose (CMC) 114 % of control | dose: 400.0 mg/kg/injection, schedule: Q01DX001 (ip), vehicle: carboxymethylcellulose (CMC) 94 % of control | dose: 400.0 mg/kg/injection, schedule: Q04DX003 (ip), vehicle: carboxymethylcellulose (CMC) 110 % of control

O=c1[nH]c2nc(Cl)c(Cl)nc2[nH]1
inactive: [4] 98 % of control | [5] 95 % of control and 96 % of control | [12] 94 % of control | [9] 108 % of control and 116 % of control | [13] 105 % of control | dose: 300.0 mg/kg/injection, schedule: Q01DX009 (ip), vehicle: saline 92 % of control | dose: 400.0 mg/kg/injection, schedule: Q01DX009 (ip), vehicle: saline 86 % of control

O=c1cc(CSCC(O)CO)[nH]c(=O)[nH]1 (centres undefined)
inactive: [12] 98 % of control | [13] 98 % of control | dose: 400.0 mg/kg/injection, schedule: Q04DX003 (ip), vehicle: saline 96 % of control

C[N+](C)(C)CCCNC(=O)Nc1ccc(Cl)cc1
inactive: dose: 3.13 mg/kg/injection, schedule: Q04DX002 (ip), vehicle: saline 102 % of control | dose: 6.25 mg/kg/injection, schedule: Q04DX002 (ip), vehicle: saline 117 % of control | dose: 12.5 mg/kg/injection, schedule: Q04DX002 (ip), vehicle: saline 106 % of control

[O-][n+]1c(C(Br)(Br)Br)ccc2ccccc21
inactive: dose: 50.0 mg/kg/injection, schedule: Q01DX009 (ip), vehicle: Klucel (hydroxypropylcellulose) (HPC) 97 % of control | [1] 95 % of control | [2] 106 % of control

Nc1nc2ncc(CNc3ccc(C(=O)NC(CCC(=O)O)C(=O)O)cn3)nc2c(=O)[nH]1 (centres undefined)
inactive: dose: 25.0 mg/kg/injection, schedule: Q01DX009 (ip), vehicle: saline with Tween-80 104 % of control | dose: 37.5 mg/kg/injection, schedule: Q01DX009 (ip), vehicle: saline with Tween-80 114 % of control and 119 % of control | [11] 114 % of control | dose: 75.0 mg/kg/injection, schedule: Q01DX009 (ip), vehicle: saline with Tween-80 108 % of control

O=C1c2ccccc2C(=O)N1CC#CCN1C(=O)c2ccccc2C1=O
inactive: [14] 102 % of control | [15] 91 % of control | [16] 112 % of control

O=C(/C=C\c1ccccc1)N1CCc2ccccc2C1
inactive: dose: 75.0 mg/kg/injection, schedule: Q04DX003 (ip), vehicle: saline 100 % of control | dose: 300.0 mg/kg/injection, schedule: Q04DX003 (ip), vehicle: saline 101 % of control

CCC(=O)C(c1ccccc1)(c1ccccc1)c1ccccc1
inactive: dose: 100.0 mg/kg/injection, schedule: Q04DX002 (ip), vehicle: other 95 % of control | dose: 200.0 mg/kg/injection, schedule: Q04DX002 (ip), vehicle: other 100 % of control

Cc1ncc(C(=O)O)n1C(C)c1ccccc1 (centres undefined)
inactive: dose: 100.0 mg/kg/injection, schedule: Q01DX001 (ip), vehicle: Klucel (hydroxypropylcellulose) (HPC) 100 % of control | [1] 94 % of control and 104 % of control | [14] 94 % of control and 100 % of control and 102 % of control | [17] 93 % of control | dose: 200.0 mg/kg/injection, schedule: Q01DX001 (ip), vehicle: Klucel (hydroxypropylcellulose) (HPC) 109 % of control | [2] 100 % of control | [15] 94 % of control and 99 % of control and 100 % of control | [18] 95 % of control | dose: 400.0 mg/kg/injection, schedule: Q01DX001 (ip), vehicle: Klucel (hydroxypropylcellulose) (HPC) 96 % of control | [3] 97 % of control and 100 % of control | [16] 98 % of control and 103 % of control and 104 % of control | [19] 96 % of control

Cc1ccc(S(=O)(=O)N(c2ccccc2)C(C)C(=O)c2ccccc2)cc1 (centres undefined)
inactive: dose: 100.0 mg/kg/injection, schedule: Q01DX001 (ip), vehicle: other 104 % of control | dose: 200.0 mg/kg/injection, schedule: Q01DX001 (ip), vehicle: other 92 % of control | dose: 400.0 mg/kg/injection, schedule: Q01DX001 (ip), vehicle: other 95 % of control

COc1ccc(C(=O)/C=C/c2ccc3c(c2)OCO3)cc1
inactive: [17] 100 % of control | [18] 94 % of control | [19] 93 % of control

NC(=O)C#CC(N)=O
inactive: [1] 97 % of control | [17] 95 % of control | [2] 109 % of control | [18] 97 % of control | [3] 92 % of control | [19] 92 % of control

Cc1ncc(CO)c(/C=N\OCc2cc(Cl)sc2Cl)c1O
inactive: [17] 93 % of control | [18] 93 % of control | [19] 104 % of control

CCOC(=O)/C(C#N)=C1\CCc2cc(OC)ccc21
inactive: [6] 96 % of control | dose: 100.0 mg/kg/injection, schedule: Q01DX009 (ip), vehicle: other 103 % of control | [7] 90 % of control | dose: 200.0 mg/kg/injection, schedule: Q01DX009 (ip), vehicle: other 99 % of control | [8] 92 % of control | dose: 400.0 mg/kg/injection, schedule: Q01DX009 (ip), vehicle: other 97 % of control

[CH3][Sn]([CH3])([Cl])[Cl]
inactive: dose: 29.0 mg/kg/injection, schedule: Q01DX009 (ip), vehicle: saline 112 % of control
